The record followed here is patent US20100292471A1, “PEPTIDE NUCLEIC ACID OLIGOMERS […] BASES,PREPARATION METHODS THEREOF, AND KITS, DEVICES AND METHODS FOR THE ANALYSIS, DETECTION OR MODULATION OF NUCLEIC ACIDS USING THE SAME” (PANAGENE INC., priority 2006, published 2010).

The subject of series [1] is PCR product of HBV wild type. The series can be described thus: PNA microarray hybridization with biotinylated PCR product, streptavidine-Cy5 fluorescence (single mismatch). Format: binding, hepatitis B virus (HBV). The following applies: hybridization at 40° C. for 2 hours, fluorescence scanner, SEQ ID Nos. 2 to 4 compared to SEQ ID No. 1.
The test system of series [2] is PCR product of HBV mutant type. The series can be described thus: PNA microarray hybridization with biotinylated PCR product, streptavidine-Cy5 fluorescence (perfect match). Format: binding, hepatitis B virus (HBV). On the procedure: The purified oligomer was diluted at a concentration of […], and spotted on a slide glass functionalized with epoxy group (Panagene, Korea) in pin mode, and the slide was allowed to stand for 4 hours at room temperature while maintaining 75% humidity. Then, it was immersed into DMF, and washed by ultrasonication for 15 minutes. It was immersed into DMF containing 0.1 M succinic anhydride and reacted at 40° C. for 2 hours. And the reaction mixture was washed by ultrasonication with DMF and deionized water, sequentially, for 15 minutes per time. Then, the slide was treated with 100 mM Tris-HCl buffer containing 0.1 M ethanolamine for 2 hours to inactivate the residual epoxy groups on the surface of the slide glass. The slide glass was washed by ultrasonication with deionized water, twice for 15 minutes per time, treated with boiling water for 5 minutes, washed with deionized water for 5 minutes, and dried. Then, a PNA microarray was ready for hybridization after attaching a silicon rubber sealing mat having holes, which can contain 100 μl of hybridization solution, to the slide glass.
To a hybridization solution of 100 μl was added 5 μl of the PCR product of HBV mutant type having biotin attached thereto, and streptavidine-Cy5 was added thereto to cause fluorescent reaction. […] The PNA microarray was scanned by a fluorescence scanner. […]

On to “k(k)k-OO-GAGCCATGAGAAA (all peptide nucleic acid (PNA); N-terminal lysines and OO linker attached) [SEQ ID No. 1, PNA oligomer, 13 mer consisting of natural bases to detect mutation]”, for which the single mismatch signal entry in series [1] was “intensive single mismatch signal”. Moreover, the perfect match signal entry in series [2] (PCR product of HBV mutant type, hybridization at 40° C. for 2 hours, fluorescence scanner, FIGS. 2 and 3) was “intensive perfect match signal”. In addition, the “discriminability of HBV mutant type against wild type” value in series [2] (perfect match signal for HBV mutant type versus single mismatch signal for HBV wild type) is listed as “cannot discriminate HBV mutant type against wild type”.
